{"source": "patent US20050004018A1", "about": "“Use of antitumoral compound in cancer therapy” (priority 2001, published 2005)", "key": {"human tumor xenografts": {"system": "human tumor xenografts", "conditions": "broad range of in vivo tumor models, including human tumor xenografts in nude mice; cited from earlier work"}, "dogs": {"system": "dogs", "conditions": "cited from earlier work"}, "rats": {"system": "rats", "conditions": "single or fractionated dose, intravenous; cited from earlier work"}, "murine progenitor cells": {"system": "murine progenitor cells", "conditions": "cited from earlier work"}, "cancer patients [1]": {"system": "cancer patients", "assay": "phase I clinical trial, 3 hours iv infusion weekly for 3 consecutive weeks every 4 weeks", "type": "in vivo, human", "experimental": "A phase I clinical trial was carried out with the following protocol:\nDose schedule: ET-743 will be administered every week as a 3hours iv infusion for 3 consecutive weeks every 4 weeks.\nStarting dose and dose escalation: The starting dose will be 300 μg/m^2 weekly of ET-743 given as a intravenous infusion over 3 hours for 3 consecutive weeks every 4 weeks. Patients will be sequentially enrolled into the following dose cohorts beginning at dose Level 1. A minimum cohort size of 3 patients will be treated at each of the dose levels.\nAccrual at the next higher dose level: At least 1 patient at each dose level must have completed 1 cycle of therapy and two patients must have completed treatment on day 15 before a new patient can be treated at the next highest dose. Conditions for retreatment: Patients are eligible for retreatment […] intolerable toxicity, the patient desires further treatment, and fulfill the eligibility criteria. Dose Limiting Toxicities (DLTs)\nDose limiting toxicities (DLT) will be defined as follows: • ANC <500/μL for longer than 5 days. • ANC <500/μL accompanied by fever (at least 100.5° F.). • Platelets <25,000/μL. • Any grade 3-4 nonhematological toxicity except nausea/vomiting (provided the patient is receiving an optimal antiemetic regimen consisting of dexamethasone and a serotonin antagonist on an optimal dose-schedule for prophylaxis and management), alopecia. Grade 3 or 4 elevation in trasaminases that result in either omission of 2 scheduled treatments within a cycle or delay in the initiation of a subsequent course exceeding 2 weeks. • Missing at least 2 scheduled treatments during a single course due to drug-induced toxicity (missed doses will not be made up). • Delay in the initiation of a subsequent course of treatment exceeding 2 weeks. Determination of the Maximum Tolerated Dose (MTD)\nCohort of 3 patients will be treated at each dose level. If no DLT is seen during the first cycle in the cohort of patients at any given dose level, new patients may be treated at the next higher level.\nIf any patient encounters drug-induced DLT during either cycle 1 or 2, a maximum of 6 patients may be treated at that level. If DLT is not observed in the additional patients, new patients may be treated at the next higher dose level.\nIf at least 2 patients experience DLT at any given dose level, this dose level will be considered the Maximum Tolerated Dose (MTD). However, it is possible that additional patients may experience DLT due to the timing of patient enrollment into that dose level.\nOnce an MTD level is established, subsequent patients should be treated at the next lower dose level. Intermediate doses may be used in some instances and flexibility is an integral part of the protocol. If two or more patients experience DLT at the lower dose level, then the MTD has again been established and additional patients will be treated at the next lower dose (unless sufficient numbers of patients have already been treated at that dose level).\nThe RD is defined as the highest dose level at which less than 2 of 6 patients experience DLT during cycles 1 or 2. At the RD, sufficient numbers of patients will be accrued so at least 6 patients receive at least 2 cycles of therapy, and at least 4 patients receive at least 4 courses of treatment.\nThis trial was launched in May 00 and last patient was included in March 02. 31 patients were treated.\nTumours included: Sarcomas (19), UOT (1), Lung (1), Ovary (4), Breast (2), Uterus (1), Melanoma (2), Colorectal (1)"}, "mice": {"system": "mice", "conditions": "single or fractionated dose, intravenous; cited from earlier work"}, "cancer patients [2]": {"system": "cancer patients", "conditions": "1-hr intravenous infusion every 3 weeks; cited from earlier work"}, "canine progenitor cells": {"system": "canine progenitor cells", "conditions": "cited from earlier work"}, "cancer patients [3]": {"system": "cancer patients", "conditions": "cited from earlier work"}, "[4]": {"system": "soft tissue sarcoma cell lines", "conditions": "several soft tissue sarcoma cell lines; cited from earlier work"}, "cancer patients [5]": {"system": "cancer patients", "conditions": "cited from earlier work", "remark": "listed apart in the source"}, "[6]": {"conditions": "3 hour weekly ×3/4 weeks infusion, per patient, number (%)"}, "[7]": {"conditions": "1 hr infusion days 1-5 every 3 weeks"}}, "note": "Read-outs that look alike come from different tables or passages of the source.", "data": [{"substance": "ecteinascidin 743 [ET-743]", "values": [{"measurement": "antitumor activity in vivo", "setting": "human tumor xenografts", "value": "Potent antitumor activity"}, {"measurement": "further toxicity in dogs", "setting": "dogs; following administration", "value": "vomiting and diarrhoea"}, {"measurement": "toxicity", "setting": "dogs; single or fractionated dose, intravenous, dogs", "value": "reversible hematological and hepatic toxicity"}, {"measurement": "toxicity", "setting": "rats", "value": "reversible hematological and hepatic toxicity"}, {"measurement": "sensitivity of progenitor cells", "setting": "murine progenitor cells", "value": "equal sensitivity of erythropoid and myeloid cells"}, {"measurement": "G3 transaminases", "setting": "cancer patients [1]; 29 patients evaluated", "value": 10, "unit": "%"}, {"measurement": "ALT G2(%)", "setting": "cancer patients [1]; [6]", "value": "9(31) %"}, {"measurement": "ALT G3(%)", "setting": "cancer patients [1]; [6]", "value": "3(10.3) %"}, {"measurement": "ALT G4(%)", "setting": "cancer patients [1]; [6]", "value": 0, "unit": "%"}, {"measurement": "Alk Phos G2(%)", "setting": "cancer patients [1]; [6]", "value": "1(3.4) %"}, {"measurement": "Alk Phos G3(%)", "setting": "cancer patients [1]; [6]", "value": "2(6.9) %"}, {"measurement": "Alk Phos G4(%)", "setting": "cancer patients [1]; [6]", "value": 0, "unit": "%"}, {"measurement": "Bilirubin G2(%)", "setting": "cancer patients [1]; [6]", "value": 0, "unit": "%"}, {"measurement": "Bilirubin G3(%)", "setting": "cancer patients [1]; [6]", "value": "1(3.4) %"}, {"measurement": "Bilirubin G4(%)", "setting": "cancer patients [1]; [6]", "value": 0, "unit": "%"}, {"measurement": "Creatine Kinase G2(%)", "setting": "cancer patients [1]; [6]", "value": "1(3.4) %"}, {"measurement": "Creatine Kinase G3(%)", "setting": "cancer patients [1]; [6]", "value": 0, "unit": "%"}, {"measurement": "Creatine Kinase G4(%)", "setting": "cancer patients [1]; [6]", "value": "1(3.4) %"}, {"measurement": "Creatinine G2(%)", "setting": "cancer patients [1]; [6]", "value": "1(3.4) %"}, {"measurement": "Creatinine G3(%)", "setting": "cancer patients [1]; [6]", "value": 0, "unit": "%"}, {"measurement": "Creatinine G4(%)", "setting": "cancer patients [1]; [6]", "value": 0, "unit": "%"}, {"measurement": "Hemoglobin G2(%)", "setting": "cancer patients [1]; [6]", "value": "9(31) %"}, {"measurement": "Hemoglobin G3(%)", "setting": "cancer patients [1]; [6]", "value": "1(3.4) %"}, {"measurement": "Hemoglobin G4(%)", "setting": "cancer patients [1]; [6]", "value": 0, "unit": "%"}, {"measurement": "Neutrophils G2(%)", "setting": "cancer patients [1]; [6]", "value": "1(3.4) %"}, {"measurement": "Neutrophils G3(%)", "setting": "cancer patients [1]; [6]", "value": "2(6.9) %"}, {"measurement": "Neutrophils G4(%)", "setting": "cancer patients [1]; [6]", "value": "1(3.4) %"}, {"measurement": "Platelets G2(%)", "setting": "cancer patients [1]; [6]", "value": "1(3.4) %"}, {"measurement": "Platelets G3(%)", "setting": "cancer patients [1]; [6]", "value": 0, "unit": "%"}, {"measurement": "Platelets G4(%)", "setting": "cancer patients [1]; [6]", "value": 0, "unit": "%"}, {"measurement": "Grade 3-4 ALT", "setting": "cancer patients [1]; Weekly schedule", "value": 10.3, "unit": "%"}, {"measurement": "Grade 3-4 Bilirubin", "setting": "cancer patients [1]; Weekly schedule", "value": 3.4, "unit": "%"}, {"measurement": "Grade 3-4 Creatinine", "setting": "cancer patients [1]; Weekly schedule", "value": 0, "unit": "%"}, {"measurement": "Grade 3-4 Creatinine Kinase", "setting": "cancer patients [1]; Weekly schedule", "value": 3.4, "unit": "%"}, {"measurement": "Grade 3-4 Hemoglobin", "setting": "cancer patients [1]; Weekly schedule", "value": 3.4, "unit": "%"}, {"measurement": "Grade 3-4 Neutrophils", "setting": "cancer patients [1]; Weekly schedule", "value": 10.3, "unit": "%"}, {"measurement": "Grade 3-4 Platelets", "setting": "cancer patients [1]; Weekly schedule", "value": 0, "unit": "%"}, {"measurement": "Serious renal toxicity (G3-4)", "setting": "cancer patients [1]; Weekly schedule", "value": "has not been seen"}, {"measurement": "DLT defining the MTD", "setting": "cancer patients [1]; at the 4th level (650)", "value": "Long lasting grade 3 neutropenia, and g3 Bilirubin toxicity"}, {"measurement": "long lasting stabilizations", "setting": "cancer patients [1]; ovarian cancer", "value": 2}, {"measurement": "minor responses", "setting": "cancer patients [1]; patients with sarcoma", "value": 2}, {"measurement": "grade 3-4 neutropenia", "setting": "cancer patients [1]; per patient, 29 patients evaluated", "value": 10.3, "unit": "%"}, {"measurement": "long lasting stabilizations", "setting": "cancer patients [1]; sarcoma", "value": 2}, {"measurement": "reduction of the most frequent toxicities", "setting": "cancer patients [1]; weekly schedule vs previous schedules", "value": "more than 3 times"}, {"measurement": "MTD", "setting": "cancer patients [1]; weekly×3/4 weeks, 3 hour infusion", "value": 650, "unit": "mcg/sm"}, {"measurement": "recommended dose", "setting": "cancer patients [1]; ×3 every 4 weeks, 3 hour infusion", "value": 580, "unit": "mcg/sm"}, {"measurement": "toxicity", "setting": "mice", "value": "reversible hematological and hepatic toxicity"}, {"measurement": "maximum tolerated dose (MTD)", "setting": "cancer patients [2]", "value": 1100, "unit": "μg/m^2"}, {"measurement": "sensitivity of progenitor cells", "setting": "canine progenitor cells", "value": "equal sensitivity of erythropoid and myeloid cells"}, {"measurement": "MTD", "setting": "cancer patients [3]; 3-hr infusion every 3 weeks", "value": 1800, "unit": "μg/M^2"}, {"measurement": "RD for Phase II studies", "setting": "cancer patients [3]; 3-hr infusion every 3 weeks", "value": 1650, "unit": "μg/M^2"}, {"measurement": "increases of bilirubin G2 or greater", "setting": "cancer patients [3]; % of treatment courses at the RD", "value": 9, "unit": "%"}, {"measurement": "IC50", "setting": "[4]", "value": "< 1", "unit": "pM"}, {"measurement": "MTD", "setting": "cancer patients [5]; [7]", "value": 380, "unit": "μg/m^2/day"}, {"measurement": "RD", "setting": "cancer patients [5]; [7]", "value": 325, "unit": "μg/m^2/day"}, {"measurement": "cycles delayed", "setting": "cancer patients [5]; at 325 μg/m^2/day (RD)", "value": 59, "unit": "%"}, {"measurement": "median day of recovery to grade 1 for neutropenia", "setting": "cancer patients [5]; at 325 μg/m^2/day (RD)", "value": 28, "unit": "days"}, {"measurement": "patients who developed DLT", "setting": "cancer patients [5]; at 380 μg/m^2/day (MTD)", "value": 3, "unit": "patients"}, {"measurement": "Reversible grade 3 transaminases, cycles", "setting": "cancer patients [5]; at the recommended dose, % of cycles", "value": 14, "unit": "%"}, {"measurement": "Reversible grade 3 transaminases, patients", "setting": "cancer patients [5]; at the recommended dose, % of patients", "value": 31, "unit": "%"}]}]}
